In patent US7332312B2, “Carbonyl reductase, gene thereof and use of the same” (priority 2002, dated 2008):

system: reductase RRG; test: Substrate specificity of RRG: reducing activity against various carbonyl compounds; assay type: biochemical, Rhodotorula glutinis var. dairenensis IFO 0415; details: pH 6.5

Row | Compound | % Activity
1 | CCOC(=O)C(Cl)C(=O)c1ccccc1 (stereo not drawn) [ethyl 2-chloro-3-oxo-3-phenpropionate, ethyl 2-chloro-3-oxo-3-phen propionate] | 34%

same assay, conditions: relative to reducing activity with 2-chloro-1-(3′-chlorophenyl)ethanone taken as 100%; substrate 1 mM, NADPH 0.25 mM, pH 6.5, 30° C.

Row | Compound | % Activity
2 | O=CC(O)CO (racemic) [DL-glyceraldehyde] | 1%
3 | O=C1CCN(Cc2ccccc2)C1 [1-benyl-3-pyrolidinone] | 4%
4 | CCC(=O)Cc1ccccc1 [1-phenyl-2-butanone] | 20%
5 | CC(=O)c1ccccn1 [2-acetylpyridine] | 60%
6 | CCC(C)=O [2-butanone] | 10%
7 | O=C(CCl)c1cccc(Cl)c1 [2-chloro-1-(3′-chlorophenyl)ethanone] | 100%
8 | CCCCCC(C)=O [2-heptanone] | 11%
9 | CCCCC(C)=O [2-hexanone] | 13%
10 | O=C(CO)c1ccccc1 [2-hydroxyacetophenone] | 34%
11 | CCC(=O)C(=O)O [2-keto-n-butyric acid] | 7%
12 | O=Cc1ccccn1 [2-pyridinecarbaldehyde] | 45%
13 | COc1ccc(C(C)=O)cc1OC [3,4-dimethoxyacetophenone] | 46%
14 | CC(=O)c1cccnc1 [3-acetylpyridine] | 28%
15 | O=CCCc1ccccc1 [3-phenylpropionaldehyde] | 10%
16 | CC(=O)c1ccncc1 [4-acetylpyridine] | 44%
17 | CC(=O)c1ccc(F)cc1 [4-fluoroacetophenone] | 30%
18 | CC(=O)CCO [4-hydroxy-2-butanone] | 11%
19 | CC(=O)CC(C)C [4-methyl-2-pentanone] | 10%
20 | CC(C)=O [acetone] | 11%
21 | CC(=O)CC(C)=O [acetylacetone] | 23%
22 | O=Cc1ccccc1 [benzaldehyde] | 25%
23 | O=C(c1ccccc1)C(O)c1ccccc1 (stereo not drawn) [benzoin] | 9%
24 | CC(=O)CC(=O)OCc1ccccc1 [benzyl acetoacetate] | 30%
25 | CC12CCC(C(=O)C1=O)C2(C)C (stereo not drawn) [camphorquinone] | 33%
26 | O=C1CCCC1 [cyclopentanone] | 9%

Row | Compound | % Activity
27 | CC(=O)C1CC1 [cyclopropyl methyl ketone] | 3%
28 | CC(=O)C(C)=O [diacetyl] | 4%
29 | CCC(=O)CC [diethyl ketone] | 17%
30 | CC1(C)COC(=O)C1=O [dihydro-4,4-dimethyl-furandio] | 238%
31 | CCOC(=O)C(C)=O [ethly pyruvate] | 247%
32 | CCOC(=O)C(Cl)C(C)=O (stereo not drawn) [ethyl 2-chloroacetoacetate] | 111%
33 | CCOC(=O)C(C)C(C)=O (stereo not drawn) [ethyl 2-methylacetoacetate] | 12%
34 | CCOC(=O)C1CCC(=O)C1 (stereo not drawn) [ethyl 3-oxocyclopentanecarboxylate] | 32%
35 | CCOC(=O)CC(=O)COC(C)=O [ethyl 4-acetoxyacetoacetate] | 46%
36 | CCOC(=O)CC(=O)CN=[N+]=[N-] [ethyl 4-azideacetoacetate] | 11%
37 | CCOC(=O)CC(=O)COCc1ccccc1 [ethyl 4-benzyloxyacetoacetate] | 58%
38 | CCOC(=O)CC(=O)CBr [ethyl 4-bromoacetoacetate] | 33%
39 | CCOC(=O)CC(=O)CCl [ethyl 4-chloroacetoacetate] | 12%
40 | CCOC(=O)CC(=O)CO [ethyl 4-hydroxyacetoacetate] | 22%
41 | CCOC(=O)CC(C)=O [ethyl acetoacetate] | 35%
42 | CCOC(=O)CC(=O)c1ccccc1 [ethyl benzoylylacetate] | 15%
43 | O=CCCCC=O [glutaraldehyde] | 2%
44 | CC(=O)CO [hydroxyacetone] | 16%
45 | CC1=CC(=O)CC(C)(C)C1 [isophorone] | 1%
46 | CC(=O)CCC(=O)O [levulinic acid] | 31%
47 | O=Cc1cccc(Cl)c1 [m-chlorobenzaldehyde] | 45%
48 | CC(=O)c1cccc(O)c1 [m-hydroxyacetophenone] | 16%
49 | CC(=O)c1cccc([N+](=O)[O-])c1 [m-nitroacetophenone] | 35%
50 | O=Cc1cccc([N+](=O)[O-])c1 [m-nitrobenzaldehyde] | 64%
51 | COC(=O)C1CCCC1=O (stereo not drawn) [methyl 2-oxocyclopentanecarboxylate, methyl 2-oxocyclopentane carboxylate] | 11%

Row | Compound | % Activity
52 | CCCCCCC(=O)C(=O)OC [methyl 2-oxooctanoate] | 3%
53 | COC(=O)CC(=O)CCl [methyl 4-chloroacetoacetate] | 81%
54 | COC(=O)CC(C)=O [methyl acetoacetate] | 14%
55 | CC(=O)C=O [methyl glyoxal] | 13%
56 | CCCC(C)=O [methyl n-propylketone] | 12%
57 | COC(=O)C(C)=O [methyl pyrucvate] | 208%
58 | CCCC=O [n-butylaldhyde] | 20%
59 | CCCC(=O)c1ccccc1 [n-butyrophenone] | 8%
60 | CCCCCC=O [n-hexylaldehyde] | 10%
61 | CCCCCCCCOC(=O)CC(=O)CCl [n-octyl 4-chloroacetoacetate] | 72%
62 | O=Cc1ccccc1Cl [o-chlorobenzaldehyde] | 24%
63 | O=Cc1ccccc1[N+](=O)[O-] [o-nitrobenza1dehyde] | 31%
64 | O=C(O)CC(=O)C(=O)O [oxalacetic acid] | 24%
65 | CC(=O)c1ccc(Cl)cc1 [p-chloroacetophenone] | 5%
66 | O=Cc1ccc(Cl)cc1 [p-chlorobenzaldehyde] | 11%
67 | O=Cc1ccc([N+](=O)[O-])cc1 [p-nitrobenzaldhyde] | 162%
68 | CCC=O [propionaldehyde] | 4%
69 | CCC(=O)c1ccccc1 [propiophenone] | 14%
70 | O=Cc1ccncc1 [pyridine-4-aldehyde] | 55%
71 | CC(=O)CC(=O)OC(C)(C)C [tert-butyl acetoacetate] | 1%
72 | O=C1COC(=O)C1 [tetrahydrofuran-2,4-dione] | 14%
73 | O=C(/C=C/c1ccccc1)c1ccccc1 [trans-calcone] | 22%
74 | O=C(c1ccccc1)C(F)(F)F [α,α,α-trifluoroacetophenon] | 83%
75 | methyl 2-eteneacetoacetate | 5%
